Tested on: Plasmopara viticola
Assay: Activity against Peronospora in grape vines caused by Plasmopara viticola (protective spray, potted vines)
Type: in vivo
Conditions: individual active ingredient, vine cultivar Müller-Thurgau
Experimental: The active ingredients, separately or together, are formulated as a 10% emulsion in a mixture of 63% by weight of cyclohexanone and 27% by weight of emulsifier, and diluted with water to the desired concentration.
Evaluation is carried out by determining the infected leaf areas in percent. These percentages are converted into efficacies. The efficacy (W) is calculated as follows using Abbot's formula: […]
α corresponds to the fungal infection of the treated plants in % and β corresponds to the fungal infection of the untreated (control) plants in % An efficacy of 0 means that the infection level of the treated plants corresponds to that of the untreated control plants; an efficacy of 100 means that the treated plants were not infected.
The expected efficacies of the mixtures of the active ingredients were determined using Colby's formula [R. S. Colby, Weeds 15, 20-22 (1967)] and compared with the observed efficacies.
E=x+y−x·y/100 Colby's formula
E expected efficacy, expressed in % of the untreated control, when using the mixture of the active ingredients A and B at the concentrations a and b […]
X efficacy, expressed in % of the untreated control, when using active ingredient A at a concentration of a […]
Y efficacy, expressed in % of the untreated control, when using active ingredient B at a concentration of b […]
Activity Against Peronospora in Grape Vines Caused by Plasmmopara viticola […]
Leaves of potted vines of the cultivar “Müller-Thurgau” were sprayed to runoff point with an aqueous preparation of active ingredient which had been prepared using a stock solution comprising 10% of active ingredient, 85% of cyclohexanone and 5% of emulsifier. The next day, the undersides of the leaves were inoculated with an aqueous zoospore suspension of Plasmopara viticola. The vines were then placed firstly for 48 hours in a water-vapor-saturated chamber at 24° C. and then for 5 days in a greenhouse at 20-30° C. After this period of time, the plants were again placed in a moist chamber for 16 hours to accelerate the sporangiophore eruption. The extent to which the undersides of the leaves had been infected was then determined visually.

Cc1ccc(-c2c(Cl)nc(C#N)n2S(=O)(=O)N(C)C)cc1 [cyazofamid]
Efficacy in % of the untreated control (1 ppm in the spray liquor): 73% | Efficacy in % of the untreated control (4 ppm in the spray liquor): 79% | Efficacy in % of the untreated control (8 ppm in the spray liquor): 84% | Efficacy in % of the untreated control (16 ppm in the spray liquor): 89%

Reference: US20040029930A1, “Fungicidal mixtures based on amide compounds” (priority 2000, published 2004)
